Laboratory results as given in PubChem BioAssay AID602211 (Sanford-Burnham Center for Chemical Genomics, 2012).
Calls of active or inactive are those of the source.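 How the source made its calls: active means mean IC50 at or below 10 µM; inactive means the rest.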

Tested on: H9c2 cardiomyocytes, H2O2 protection, ATPLite viability, 2 h
Experiment: protection of H9c2 cardiomyocytes from H2O2 death, dose response, cell-based, ATPLite luminescence, set 2 (AID 602211);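 further: potency is for protection so actives keep ATP signal up against peroxide killing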

SMILES | IC50
COc1ccc(-c2cc(-c3nnc(COC(=O)C4CC4C)o3)c3ccccc3n2)cc1OC (stereo not given) | 3.86 µM
Brc1ccc(-c2nn3c(-c4ccccn4)nnc3s2)o1 | 27.4 µM (inactive)
CCC(CC)C(=O)Nc1cc(C)c2c(=O)oc3ccccc3c2n1 | 2.05 µM
COc1ccc(-c2csc(NC(=O)c3ccc(OCC(=O)N4CCOCC4)c(OC)c3)n2)cc1OC | 2.44 µM
COc1cc(NC(=O)c2csc(-c3ccncc3)n2)cc(C(=O)Nc2cccc(C(F)(F)F)c2)c1 | 2.7 µM
CC1Nc2ncnc(N3CCN(c4ccccc4)CC3)c2N(Cc2ccc(Br)cc2)C1=O (stereo not given) | 6.65 µM
CC1(c2ccccc2)NC(=O)N(CC(=O)Nc2cccc(/C=C/c3ccccn3)c2)C1=O (stereo not given) | 9.76 µM
CCN(CC)C(=O)c1ccc2c3c(cccc13)C(=O)N(CCc1ccc(OC)c(OC)c1)C2=O | > 79 µM (inactive)
CCCCn1nc(NC(=O)c2cccs2)c2cc3cc(OC)ccc3nc21 | 3.61 µM
Cc1ccccc1NP(=O)(Oc1ccccc1F)Oc1ccccc1F | > 79 µM (inactive)
CCOC(=O)c1cnc(Nc2nc3ccccc3o2)nc1CSc1nnc(C)s1 | 12.8 µM (inactive)
Cc1nc(NC(=O)c2cc3c(C)nn(-c4ccccc4)c3s2)sc1C(=O)Nc1ccccc1 | 2.7 µM
Cn1c(=O)c2[nH]c(NN=Cc3ccc(Br)cc3)nc2n(C)c1=O | 5.14 µM
COc1ccc(OC)c(N(CC(=O)Nc2cccnc2)S(=O)(=O)c2ccc(OC)c(OC)c2)c1 | 16.5 µM (inactive)
Fc1ccc(-n2cc(-c3ccccc3)c3c(N4CCOCC4)ncnc32)cc1 | 6.27 µM
